Test results as given in ChEMBL document CHEMBL4507260 (2021).

Columns and labels:
Details in all cases: Compound concentration 1000.0 nM
[1] = system: Tyrosine-protein kinase ABL1 (Homo sapiens), P00519 [Y253F]
[2] = biological target: Activin receptor type-1B (Homo sapiens) (UniProt P36896)
[3] = biological target: Atypical kinase COQ8A, mitochondrial (Homo sapiens) (UniProt Q8NI60)
[4] = biological target: RAC-beta serine/threonine-protein kinase (Homo sapiens) (UniProt P31751)
[5] = biological target: Aurora kinase C (Homo sapiens) (UniProt Q9UQB9)
[6] = biological target: Tyrosine-protein kinase receptor UFO (Homo sapiens) (UniProt P30530)
[7] = biological target: Calcium/calmodulin-dependent protein kinase type II subunit delta (Homo sapiens) (UniProt Q13557)
[8] = biological target: Cyclin-dependent kinase 4 (Homo sapiens) (UniProt P11802)
[9] = biological target: Serine/threonine-protein kinase 17A (Homo sapiens) (UniProt Q9UEE5)
[10] = biological target: Epidermal growth factor receptor (Homo sapiens) (UniProt P00533)
[11] = system: Epidermal growth factor receptor (Homo sapiens), P00533 [L858R,T790M]
[12] = system: Epidermal growth factor receptor (Homo sapiens), P00533 [L861Q]
[13] = biological target: Receptor tyrosine-protein kinase erbB-4 (Homo sapiens) (UniProt Q15303)
[14] = biological target: Focal adhesion kinase 1 (Homo sapiens) (UniProt Q05397)
[15] = system: Receptor-type tyrosine-protein kinase FLT3 (Homo sapiens), P36888 [D835H]
[16] = system: Receptor-type tyrosine-protein kinase FLT3 (Homo sapiens), P36888 [N841I]
[17] = biological target: Glycogen synthase kinase-3 beta (Homo sapiens) (UniProt P49841)
[18] = biological target: Tyrosine-protein kinase HCK (Homo sapiens) (UniProt P08631)
[19] = biological target: Homeodomain-interacting protein kinase 1 (Homo sapiens) (UniProt Q86Z02)
[20] = biological target: Homeodomain-interacting protein kinase 4 (Homo sapiens) (UniProt Q8NE63)
[21] = biological target: Tyrosine-protein kinase JAK3 (Homo sapiens) (UniProt P52333)
[22] = biological target: Serine/threonine-protein kinase LATS1 (Homo sapiens) (UniProt O95835)
[23] = biological target: LIM domain kinase 1 (Homo sapiens) (UniProt P53667)
[24] = biological target: Serine/threonine-protein kinase STK11 (Homo sapiens) (UniProt Q15831)
[25] = biological target: Mitogen-activated protein kinase kinase kinase 1 (Homo sapiens) (UniProt Q13233)
[26] = biological target: Dual specificity mitogen-activated protein kinase kinase 5 (Homo sapiens) (UniProt Q13163)
[27] = biological target: Dual specificity mitogen-activated protein kinase kinase 7 (Homo sapiens) (UniProt O14733)
[28] = biological target: Serine/threonine-protein kinase Nek3 (Homo sapiens) (UniProt P51956)
[29] = biological target: Mitogen-activated protein kinase 13 (Homo sapiens) (UniProt O15264)
[30] = biological target: Platelet-derived growth factor receptor alpha (Homo sapiens) (UniProt P16234)
[31] = biological target: Phosphatidylinositol 4-phosphate 3-kinase C2 domain-containing subunit beta (Homo sapiens) (UniProt O00750)
[32] = biological target: cAMP-dependent protein kinase catalytic subunit beta (Homo sapiens) (UniProt P22694)
[33] = biological target: Serine/threonine-protein kinase N2 (Homo sapiens) (UniProt Q16513)
[34] = biological target: Serine/threonine-protein kinase PknB (Mycobacterium tuberculosis) (UniProt P9WI81)
[35] = biological target: Serine/threonine-protein kinase D1 (Homo sapiens) (UniProt Q15139)
[36] = biological target: Serine/threonine-protein kinase D3 (Homo sapiens) (UniProt O94806)
[37] = system: Proto-oncogene tyrosine-protein kinase receptor Ret (Homo sapiens), P07949 [V804L]
[38] = biological target: Ribosomal protein S6 kinase alpha-1 (Homo sapiens) (UniProt Q15418)
[39] = biological target: Ribosomal protein S6 kinase alpha-6 (Homo sapiens) (UniProt Q9UK32)
[40] = biological target: Ribosomal protein S6 kinase alpha-6 (Homo sapiens) (UniProt Q9UK32); remark: listed apart in the source
[41] = biological target: Ribosomal protein S6 kinase beta-1 (Homo sapiens) (UniProt P23443)
[42] = biological target: Serine/threonine-protein kinase TNNI3K (Homo sapiens) (UniProt Q59H18)
[43] = biological target: Serine/threonine-protein kinase ULK2 (Homo sapiens) (UniProt Q8IYT8)
[44] = biological target: Serine/threonine-protein kinase VRK2 (Homo sapiens) (UniProt Q86Y07)
[45] = biological target: Serine/threonine-protein kinase WNK3 (Homo sapiens) (UniProt Q9BYP7)

Measured: residual activity

Ribosomal protein S6 kinase alpha-6 (Homo sapiens), sequence (Q9UK32 whole entry): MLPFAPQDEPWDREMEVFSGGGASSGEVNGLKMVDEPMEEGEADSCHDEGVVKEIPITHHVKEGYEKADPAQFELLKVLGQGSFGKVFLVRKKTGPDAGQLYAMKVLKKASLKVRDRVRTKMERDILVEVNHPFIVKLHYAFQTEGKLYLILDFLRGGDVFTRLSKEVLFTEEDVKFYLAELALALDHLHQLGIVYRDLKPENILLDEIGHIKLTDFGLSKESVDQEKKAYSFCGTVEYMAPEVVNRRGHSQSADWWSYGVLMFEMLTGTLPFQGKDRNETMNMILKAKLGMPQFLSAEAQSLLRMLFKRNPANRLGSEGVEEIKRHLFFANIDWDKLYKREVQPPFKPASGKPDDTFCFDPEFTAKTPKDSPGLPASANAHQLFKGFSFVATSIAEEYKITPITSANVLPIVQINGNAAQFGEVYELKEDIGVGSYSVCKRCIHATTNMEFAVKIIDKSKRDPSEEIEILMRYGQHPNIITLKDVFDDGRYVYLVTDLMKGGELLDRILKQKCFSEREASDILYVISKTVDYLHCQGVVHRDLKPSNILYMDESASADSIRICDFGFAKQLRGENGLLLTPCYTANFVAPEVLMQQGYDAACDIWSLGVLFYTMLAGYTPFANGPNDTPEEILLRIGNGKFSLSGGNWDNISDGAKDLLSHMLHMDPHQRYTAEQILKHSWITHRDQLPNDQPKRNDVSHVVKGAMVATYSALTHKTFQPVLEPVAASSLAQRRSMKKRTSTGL
Platelet-derived growth factor receptor alpha (Homo sapiens), sequence (P16234 whole entry, the tested form may be a part): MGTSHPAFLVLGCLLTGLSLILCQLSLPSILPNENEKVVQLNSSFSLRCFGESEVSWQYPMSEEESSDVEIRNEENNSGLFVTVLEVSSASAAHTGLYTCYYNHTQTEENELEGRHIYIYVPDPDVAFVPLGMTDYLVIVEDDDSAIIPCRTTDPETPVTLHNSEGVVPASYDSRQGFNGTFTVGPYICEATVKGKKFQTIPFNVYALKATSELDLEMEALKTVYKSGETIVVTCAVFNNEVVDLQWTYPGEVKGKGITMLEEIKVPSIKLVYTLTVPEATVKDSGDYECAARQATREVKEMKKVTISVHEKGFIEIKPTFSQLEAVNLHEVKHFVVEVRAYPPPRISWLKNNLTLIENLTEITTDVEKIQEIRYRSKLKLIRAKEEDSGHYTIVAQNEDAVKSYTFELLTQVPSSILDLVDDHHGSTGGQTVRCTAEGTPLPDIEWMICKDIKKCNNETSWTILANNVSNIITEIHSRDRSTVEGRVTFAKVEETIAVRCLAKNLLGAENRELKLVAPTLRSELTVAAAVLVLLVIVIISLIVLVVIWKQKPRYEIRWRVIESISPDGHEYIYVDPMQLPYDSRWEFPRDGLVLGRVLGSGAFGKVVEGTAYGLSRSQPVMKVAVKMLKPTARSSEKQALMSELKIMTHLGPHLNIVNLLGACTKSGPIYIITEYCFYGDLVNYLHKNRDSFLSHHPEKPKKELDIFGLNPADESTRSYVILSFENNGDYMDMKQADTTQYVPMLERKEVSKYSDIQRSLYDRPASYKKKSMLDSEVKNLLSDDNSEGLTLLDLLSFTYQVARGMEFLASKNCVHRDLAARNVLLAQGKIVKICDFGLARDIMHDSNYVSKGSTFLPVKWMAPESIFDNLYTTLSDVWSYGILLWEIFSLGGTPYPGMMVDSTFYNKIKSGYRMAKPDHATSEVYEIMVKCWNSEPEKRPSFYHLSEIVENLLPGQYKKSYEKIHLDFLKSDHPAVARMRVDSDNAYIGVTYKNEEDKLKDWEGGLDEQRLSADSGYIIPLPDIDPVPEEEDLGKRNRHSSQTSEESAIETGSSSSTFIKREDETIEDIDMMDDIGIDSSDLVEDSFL
Ribosomal protein S6 kinase beta-1 (Homo sapiens), sequence (P23443 whole entry, looked up): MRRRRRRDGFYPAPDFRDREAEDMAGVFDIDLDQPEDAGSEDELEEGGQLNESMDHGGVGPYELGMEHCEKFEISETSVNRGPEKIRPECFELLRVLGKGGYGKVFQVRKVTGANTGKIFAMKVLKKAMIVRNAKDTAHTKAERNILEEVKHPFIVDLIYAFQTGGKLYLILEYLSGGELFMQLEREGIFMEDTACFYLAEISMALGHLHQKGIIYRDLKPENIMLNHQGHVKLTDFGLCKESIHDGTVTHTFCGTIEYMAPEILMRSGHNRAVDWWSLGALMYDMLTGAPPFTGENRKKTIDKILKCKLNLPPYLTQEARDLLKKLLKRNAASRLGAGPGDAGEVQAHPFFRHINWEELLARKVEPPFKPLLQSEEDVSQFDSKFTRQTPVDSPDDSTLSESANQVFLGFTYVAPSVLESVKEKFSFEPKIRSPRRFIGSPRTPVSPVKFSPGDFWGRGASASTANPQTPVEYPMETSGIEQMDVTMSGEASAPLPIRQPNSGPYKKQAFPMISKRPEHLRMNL
Tyrosine-protein kinase JAK3 (Homo sapiens), sequence (P52333 whole entry): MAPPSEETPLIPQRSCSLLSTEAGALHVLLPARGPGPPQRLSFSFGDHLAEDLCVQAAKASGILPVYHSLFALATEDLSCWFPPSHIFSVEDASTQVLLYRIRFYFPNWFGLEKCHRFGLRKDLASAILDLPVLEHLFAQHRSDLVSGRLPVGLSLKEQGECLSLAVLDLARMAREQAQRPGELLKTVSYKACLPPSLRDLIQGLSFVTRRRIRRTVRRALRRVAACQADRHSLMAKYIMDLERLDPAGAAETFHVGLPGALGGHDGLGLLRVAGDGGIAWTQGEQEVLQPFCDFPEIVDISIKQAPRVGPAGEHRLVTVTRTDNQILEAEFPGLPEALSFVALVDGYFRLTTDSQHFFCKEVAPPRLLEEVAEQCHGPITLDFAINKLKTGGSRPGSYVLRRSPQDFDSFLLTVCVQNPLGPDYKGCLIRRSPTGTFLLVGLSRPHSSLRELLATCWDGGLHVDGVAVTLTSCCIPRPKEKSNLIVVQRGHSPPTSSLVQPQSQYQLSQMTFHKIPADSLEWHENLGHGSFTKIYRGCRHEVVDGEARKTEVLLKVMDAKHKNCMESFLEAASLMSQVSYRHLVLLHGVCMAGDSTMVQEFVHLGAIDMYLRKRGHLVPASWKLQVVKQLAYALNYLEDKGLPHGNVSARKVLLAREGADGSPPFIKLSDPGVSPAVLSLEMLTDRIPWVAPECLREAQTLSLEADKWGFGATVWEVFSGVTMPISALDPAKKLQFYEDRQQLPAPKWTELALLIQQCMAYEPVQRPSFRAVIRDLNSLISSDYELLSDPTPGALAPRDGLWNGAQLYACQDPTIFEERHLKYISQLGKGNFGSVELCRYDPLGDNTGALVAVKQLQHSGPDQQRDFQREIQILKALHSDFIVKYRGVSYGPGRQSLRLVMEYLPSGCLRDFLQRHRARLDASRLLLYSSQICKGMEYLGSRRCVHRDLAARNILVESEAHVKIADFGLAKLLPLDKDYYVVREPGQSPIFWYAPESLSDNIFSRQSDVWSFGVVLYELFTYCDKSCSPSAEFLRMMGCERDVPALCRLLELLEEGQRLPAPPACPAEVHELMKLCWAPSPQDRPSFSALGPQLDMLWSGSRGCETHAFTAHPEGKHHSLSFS
Serine/threonine-protein kinase TNNI3K (Homo sapiens), sequence (Q59H18 whole entry): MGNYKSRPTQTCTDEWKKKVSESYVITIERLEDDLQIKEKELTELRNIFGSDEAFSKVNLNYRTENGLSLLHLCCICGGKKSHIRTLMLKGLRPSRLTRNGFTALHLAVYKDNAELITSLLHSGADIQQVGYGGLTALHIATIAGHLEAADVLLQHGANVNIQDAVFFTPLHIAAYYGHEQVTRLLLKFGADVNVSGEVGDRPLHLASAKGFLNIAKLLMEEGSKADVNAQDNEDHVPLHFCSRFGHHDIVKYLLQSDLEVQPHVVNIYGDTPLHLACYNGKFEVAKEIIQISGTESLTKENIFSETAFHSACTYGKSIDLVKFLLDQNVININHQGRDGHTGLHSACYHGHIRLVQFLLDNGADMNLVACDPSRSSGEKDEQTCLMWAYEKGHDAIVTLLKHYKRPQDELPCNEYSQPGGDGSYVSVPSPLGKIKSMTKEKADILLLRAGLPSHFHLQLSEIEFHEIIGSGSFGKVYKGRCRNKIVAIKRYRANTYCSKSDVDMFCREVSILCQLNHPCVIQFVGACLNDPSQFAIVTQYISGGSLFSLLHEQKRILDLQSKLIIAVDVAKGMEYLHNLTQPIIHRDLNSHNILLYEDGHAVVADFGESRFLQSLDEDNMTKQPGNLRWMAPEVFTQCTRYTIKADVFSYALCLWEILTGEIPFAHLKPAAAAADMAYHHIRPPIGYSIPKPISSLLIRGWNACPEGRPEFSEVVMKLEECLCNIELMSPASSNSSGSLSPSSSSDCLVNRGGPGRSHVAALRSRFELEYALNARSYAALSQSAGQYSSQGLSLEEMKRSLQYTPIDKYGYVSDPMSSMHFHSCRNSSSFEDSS
Calcium/calmodulin-dependent protein kinase type II subunit delta (Homo sapiens), sequence (Q13557 whole entry): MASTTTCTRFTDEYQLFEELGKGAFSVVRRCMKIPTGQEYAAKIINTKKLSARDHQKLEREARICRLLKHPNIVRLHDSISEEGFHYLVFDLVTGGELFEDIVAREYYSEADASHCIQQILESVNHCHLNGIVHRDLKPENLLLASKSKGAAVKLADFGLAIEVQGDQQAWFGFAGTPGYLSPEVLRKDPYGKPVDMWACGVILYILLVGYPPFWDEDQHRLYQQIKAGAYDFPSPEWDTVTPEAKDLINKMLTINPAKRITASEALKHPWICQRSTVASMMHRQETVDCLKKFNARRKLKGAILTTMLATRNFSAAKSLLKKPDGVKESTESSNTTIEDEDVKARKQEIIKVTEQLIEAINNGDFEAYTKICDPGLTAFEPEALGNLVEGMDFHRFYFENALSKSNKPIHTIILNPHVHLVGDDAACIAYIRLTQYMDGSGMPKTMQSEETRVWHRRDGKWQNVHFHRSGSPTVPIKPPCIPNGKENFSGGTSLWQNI

c1ccc(N2CCN(Cc3nc4ccccc4[nH]3)CC2)nc1 [ABT-724]
inactive: [1] 100% | [2] 85% | [3] 98% | [4] 100% | [5] 100% | [6] 100% | [7] 91% | [8] 100% | [9] 100% | [10] 99% | [11] 100% | [12] 74% | [13] 95% | [14] 86% | [15] 100% | [16] 100% | [17] 93% | [18] 100% | [19] 99% | [20] 91% | [21] 100% | [22] 100% | [23] 100% | [24] 70% | [25] 99% | [26] 83% | [27] 100% | [28] 100% | [29] 100% | [30] 100% | [31] 85% | [32] 93% | [33] 100% | [34] 87% | [35] 95% | [36] 100% | [37] 100% | [38] 100% | [39] 100% | [40] 100% | [41] 97% | [42] 100% | [43] 100% | [44] 100% | [45] 100%

CSc1cccnc1N1CCN(Cc2nc3ccccc3[nH]2)CC1 [A-769]
inactive: [1] 76% | [2] 100% | [3] 100% | [4] 98% | [5] 100% | [6] 100% | [7] 100% | [8] 82% | [9] 98% | [10] 100% | [11] 91% | [12] 100% | [13] 83% | [14] 100% | [15] 65% | [16] 100% | [17] 78% | [18] 82% | [19] 78% | [20] 100% | [21] 100% | [22] 100% | [23] 100% | [24] 100% | [25] 70% | [26] 72% | [27] 92% | [28] 88% | [29] 100% | [30] 89% | [31] 94% | [32] 100% | [33] 62% | [34] 87% | [35] 100% | [36] 100% | [37] 98% | [38] 100% | [39] 81% | [40] 94% | [41] 87% | [42] 100% | [43] 94% | [44] 75% | [45] 100%
